From PMC3747596 (PLoS ONE, 2013) come the findings set out here.

pKi: −log10 of the molar value. Read-outs that look alike come from different tables or passages of the source. Bounds are passed on as bounds.

In general, Papp A→B refers to how fast a substance crosses the layer from the apical side. The low end stands for poor permeation, the high end for ready permeation. As usually defined, the Papp B→A is how fast a substance crosses the layer from the basolateral side. In general, efflux ratio refers to a quotient of directional permeabilities that is used to spot active efflux.

Data set [1] concerns the target 5-HT7 (Homo sapiens, UniProt P34969). Briefly: Radioligand displacement, 5-HT7. The data set is classed as binding. Background: Loss of bound radioactivity is the signal in a displacement assay; it reports binding, not function.
The target in data set [2] is T1, α2B (Homo sapiens, UniProt P18089).
T1 sequence (P18089 1-450): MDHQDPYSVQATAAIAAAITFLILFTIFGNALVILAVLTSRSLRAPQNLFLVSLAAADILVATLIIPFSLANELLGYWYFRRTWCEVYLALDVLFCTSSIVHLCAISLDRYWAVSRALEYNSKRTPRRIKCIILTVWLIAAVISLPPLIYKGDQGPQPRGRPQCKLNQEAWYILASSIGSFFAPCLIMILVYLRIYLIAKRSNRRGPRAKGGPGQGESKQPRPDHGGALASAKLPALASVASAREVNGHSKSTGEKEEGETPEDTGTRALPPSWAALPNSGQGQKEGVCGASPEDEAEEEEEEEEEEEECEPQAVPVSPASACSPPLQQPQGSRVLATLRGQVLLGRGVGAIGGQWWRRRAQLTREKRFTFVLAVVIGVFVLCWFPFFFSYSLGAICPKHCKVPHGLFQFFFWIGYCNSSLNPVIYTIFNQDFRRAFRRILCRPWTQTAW
Nature of the data set: Radioligand displacement, α2B. Format: binding.

In data set [3] the target is GABAA. Briefly: Radioligand displacement, GABAA. Format: binding. As to conditions: [3H] radioligand Muscimol; Rat, forebrain.
Data set [4] addresses D2 (Homo sapiens, UniProt P14416). Nature of the data set: Radioligand displacement, D2. The data set is classed as binding.
Data set [5] addresses T2, 5-HT1a (Homo sapiens, UniProt P08908).
T2 sequence (P08908 1-422): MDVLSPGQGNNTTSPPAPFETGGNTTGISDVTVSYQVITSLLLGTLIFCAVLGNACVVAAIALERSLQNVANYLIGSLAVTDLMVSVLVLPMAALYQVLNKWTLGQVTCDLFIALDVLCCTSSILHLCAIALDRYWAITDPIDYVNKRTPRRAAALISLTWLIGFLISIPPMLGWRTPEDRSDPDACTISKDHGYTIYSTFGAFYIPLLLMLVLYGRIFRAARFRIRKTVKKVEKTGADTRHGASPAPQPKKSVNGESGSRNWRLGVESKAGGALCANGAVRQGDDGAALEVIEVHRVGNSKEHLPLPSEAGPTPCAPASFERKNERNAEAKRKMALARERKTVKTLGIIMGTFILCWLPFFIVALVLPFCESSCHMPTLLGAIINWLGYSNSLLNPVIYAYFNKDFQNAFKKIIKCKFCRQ
Nature of the data set: Radioligand displacement, 5-HT1a. The data set is classed as binding.

Data set [6] addresses T3, α2A (Homo sapiens, UniProt P08913).
T3 sequence (P08913 1-465): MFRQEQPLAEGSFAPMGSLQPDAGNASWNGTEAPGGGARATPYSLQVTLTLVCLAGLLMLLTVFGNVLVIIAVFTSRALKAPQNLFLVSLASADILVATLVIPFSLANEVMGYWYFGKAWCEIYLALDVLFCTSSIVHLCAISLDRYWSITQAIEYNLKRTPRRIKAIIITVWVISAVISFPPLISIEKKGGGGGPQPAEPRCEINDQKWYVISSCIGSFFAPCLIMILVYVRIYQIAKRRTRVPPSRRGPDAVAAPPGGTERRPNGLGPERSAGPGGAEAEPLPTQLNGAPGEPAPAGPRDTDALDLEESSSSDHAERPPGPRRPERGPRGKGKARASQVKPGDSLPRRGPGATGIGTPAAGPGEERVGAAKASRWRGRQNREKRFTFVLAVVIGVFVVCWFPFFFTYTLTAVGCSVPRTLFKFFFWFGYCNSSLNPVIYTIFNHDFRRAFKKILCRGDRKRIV
Briefly: Radioligand displacement, α2A.

The target in data set [7] is T4, σ2 (Rattus norvegicus, UniProt Q5U3Y7).
T4 sequence (Q5U3Y7 1-176): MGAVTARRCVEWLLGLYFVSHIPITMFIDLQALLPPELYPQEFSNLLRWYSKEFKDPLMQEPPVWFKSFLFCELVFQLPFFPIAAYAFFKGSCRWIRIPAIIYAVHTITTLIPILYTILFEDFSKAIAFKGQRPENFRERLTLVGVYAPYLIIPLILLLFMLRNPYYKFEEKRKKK
Briefly: Radioligand displacement, σ2. Format: binding.

In data set [8] the target is T5, α1A-adrenoceptor (α1A-AR) (Homo sapiens, UniProt P35348).
T5 sequence (P35348 1-466): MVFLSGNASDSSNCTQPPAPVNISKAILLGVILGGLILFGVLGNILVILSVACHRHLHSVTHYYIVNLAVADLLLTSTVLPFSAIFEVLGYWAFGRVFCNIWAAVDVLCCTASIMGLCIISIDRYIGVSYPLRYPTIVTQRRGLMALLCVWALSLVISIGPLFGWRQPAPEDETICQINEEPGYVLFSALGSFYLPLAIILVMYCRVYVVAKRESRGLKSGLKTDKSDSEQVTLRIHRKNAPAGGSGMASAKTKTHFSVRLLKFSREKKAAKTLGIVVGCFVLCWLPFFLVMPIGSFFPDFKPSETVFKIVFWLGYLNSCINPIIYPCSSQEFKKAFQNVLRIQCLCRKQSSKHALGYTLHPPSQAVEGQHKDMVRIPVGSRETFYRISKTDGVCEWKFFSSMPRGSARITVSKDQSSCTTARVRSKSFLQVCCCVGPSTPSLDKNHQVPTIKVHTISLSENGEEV
Nature of the data set: Radioligand displacement, α1A. Format: binding.

For data set [9], the target named is σ1 (Rattus norvegicus, UniProt Q9R0C9). Nature of the data set: Radioligand displacement, σ1. Format: binding.
Data set [10] is described as follows: Caco-2 cell monolayer permeation. The following applies: human, Caco-2, pH 7.4. (Caco-2 monolayers are a common model of the intestinal barrier.)
For data set [11], the target named is H4 (Homo sapiens, UniProt Q9H3N8). Nature of the data set: Radioligand displacement, H4. The data set is classed as binding.
The target of data set [12] is 5-HT1b (Homo sapiens, UniProt P28222). Nature of the data set: Radioligand displacement, 5-HT1b. Format: binding.
The target of data set [13] is M5 (Homo sapiens, UniProt P08912). Nature of the data set: Radioligand displacement, M5. The data set is classed as binding.
Data set [14] addresses 5-HT1e (Homo sapiens, UniProt P28566). Briefly: Radioligand displacement, 5-HT1e. The data set is classed as binding.
The mark [15] stands for this setting: [3H] radioligand Rauwolscine, Human, Cloned.
Where [16] appears, read: [3H] radioligand 8-OH-DPAT, Human, Cloned.
[17] abbreviates: Ki, [3H] radioligand Prazosin, Human, Cloned.

D2, sequence (P14416 whole entry): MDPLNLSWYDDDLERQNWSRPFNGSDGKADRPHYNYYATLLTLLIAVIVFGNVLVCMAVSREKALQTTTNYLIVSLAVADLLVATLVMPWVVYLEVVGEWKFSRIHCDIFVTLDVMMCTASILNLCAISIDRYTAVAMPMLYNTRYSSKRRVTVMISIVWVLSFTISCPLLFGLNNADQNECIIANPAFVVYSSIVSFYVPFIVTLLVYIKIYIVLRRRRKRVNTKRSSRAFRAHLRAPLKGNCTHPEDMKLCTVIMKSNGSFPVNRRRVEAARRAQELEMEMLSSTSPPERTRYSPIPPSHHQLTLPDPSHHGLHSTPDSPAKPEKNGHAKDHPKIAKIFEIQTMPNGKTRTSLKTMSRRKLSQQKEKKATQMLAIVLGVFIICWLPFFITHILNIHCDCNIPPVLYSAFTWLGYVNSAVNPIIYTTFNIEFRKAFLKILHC
5-HT1e, sequence (P28566 whole entry): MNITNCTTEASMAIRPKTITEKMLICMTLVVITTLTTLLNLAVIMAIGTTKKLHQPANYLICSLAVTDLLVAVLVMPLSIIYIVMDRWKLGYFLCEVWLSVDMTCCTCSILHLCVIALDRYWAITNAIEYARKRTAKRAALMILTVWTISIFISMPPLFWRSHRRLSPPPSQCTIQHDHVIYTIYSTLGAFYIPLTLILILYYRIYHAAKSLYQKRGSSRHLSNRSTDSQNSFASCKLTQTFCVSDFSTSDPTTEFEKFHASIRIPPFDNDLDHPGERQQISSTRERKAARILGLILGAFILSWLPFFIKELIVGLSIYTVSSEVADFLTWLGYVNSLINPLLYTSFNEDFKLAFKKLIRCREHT
5-HT7, sequence (P34969 whole entry): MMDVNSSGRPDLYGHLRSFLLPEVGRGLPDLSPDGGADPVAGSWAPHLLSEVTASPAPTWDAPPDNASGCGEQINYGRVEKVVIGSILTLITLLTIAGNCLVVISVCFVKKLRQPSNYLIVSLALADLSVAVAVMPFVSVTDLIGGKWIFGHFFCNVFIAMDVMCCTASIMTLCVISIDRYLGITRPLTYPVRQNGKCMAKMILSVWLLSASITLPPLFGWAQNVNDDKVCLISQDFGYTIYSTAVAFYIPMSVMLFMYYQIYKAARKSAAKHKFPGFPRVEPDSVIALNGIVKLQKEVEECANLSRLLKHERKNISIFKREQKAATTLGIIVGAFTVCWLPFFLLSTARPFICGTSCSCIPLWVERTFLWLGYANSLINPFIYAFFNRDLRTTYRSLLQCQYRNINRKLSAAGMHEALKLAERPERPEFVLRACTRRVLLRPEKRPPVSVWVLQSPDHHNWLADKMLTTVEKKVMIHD
5-HT1b, sequence (P28222 whole entry): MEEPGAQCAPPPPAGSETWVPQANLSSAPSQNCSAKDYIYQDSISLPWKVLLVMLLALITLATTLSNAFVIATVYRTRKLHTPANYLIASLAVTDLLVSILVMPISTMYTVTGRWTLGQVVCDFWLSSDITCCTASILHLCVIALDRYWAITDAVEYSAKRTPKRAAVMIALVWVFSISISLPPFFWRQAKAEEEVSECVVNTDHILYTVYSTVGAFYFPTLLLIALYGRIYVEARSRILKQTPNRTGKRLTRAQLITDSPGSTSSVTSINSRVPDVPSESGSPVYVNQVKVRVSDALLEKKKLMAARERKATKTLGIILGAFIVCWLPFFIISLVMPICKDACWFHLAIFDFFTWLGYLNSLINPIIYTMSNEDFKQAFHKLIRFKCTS
H4, sequence (Q9H3N8 whole entry): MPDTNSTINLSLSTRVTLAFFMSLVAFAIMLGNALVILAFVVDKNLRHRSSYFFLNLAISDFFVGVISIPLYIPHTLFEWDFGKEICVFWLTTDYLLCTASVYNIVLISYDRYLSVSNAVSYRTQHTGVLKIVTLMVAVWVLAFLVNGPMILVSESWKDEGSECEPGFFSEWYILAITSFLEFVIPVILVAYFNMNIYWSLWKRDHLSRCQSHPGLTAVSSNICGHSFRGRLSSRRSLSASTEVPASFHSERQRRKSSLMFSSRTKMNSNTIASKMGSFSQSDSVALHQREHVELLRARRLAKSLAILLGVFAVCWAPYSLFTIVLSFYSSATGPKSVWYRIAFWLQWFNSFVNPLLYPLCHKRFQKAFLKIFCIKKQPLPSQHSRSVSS
M5, sequence (P08912 whole entry): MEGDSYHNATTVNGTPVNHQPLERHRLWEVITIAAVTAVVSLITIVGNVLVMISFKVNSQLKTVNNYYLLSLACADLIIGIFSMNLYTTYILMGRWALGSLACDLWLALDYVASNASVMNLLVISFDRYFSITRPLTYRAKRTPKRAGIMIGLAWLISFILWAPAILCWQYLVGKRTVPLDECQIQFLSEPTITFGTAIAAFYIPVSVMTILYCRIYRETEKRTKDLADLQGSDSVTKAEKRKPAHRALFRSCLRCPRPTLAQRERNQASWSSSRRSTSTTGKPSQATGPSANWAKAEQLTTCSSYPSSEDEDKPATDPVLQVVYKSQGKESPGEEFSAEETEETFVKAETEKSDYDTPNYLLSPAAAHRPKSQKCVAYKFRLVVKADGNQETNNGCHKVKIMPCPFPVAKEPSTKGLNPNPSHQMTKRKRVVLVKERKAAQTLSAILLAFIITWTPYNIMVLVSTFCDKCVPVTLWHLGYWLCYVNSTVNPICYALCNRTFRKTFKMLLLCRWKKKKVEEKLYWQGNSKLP
σ1, sequence (Q9R0C9 whole entry): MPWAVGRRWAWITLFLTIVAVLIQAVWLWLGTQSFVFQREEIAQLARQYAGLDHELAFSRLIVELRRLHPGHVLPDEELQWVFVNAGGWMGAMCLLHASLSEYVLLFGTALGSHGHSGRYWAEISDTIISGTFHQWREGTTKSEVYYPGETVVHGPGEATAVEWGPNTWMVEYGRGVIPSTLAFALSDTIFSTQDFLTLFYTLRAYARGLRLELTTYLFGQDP

On to `N=C(N)Nc1ccc2[nH]c3c(c2c1)C[C@@]1(O)[C@H]2Cc4ccc(O)c5c4[C@@]1(CCN2CC1CC1)[C@H]3O5` [GNTI, 5′-guanidinonaltrindole], for which the pKi in data set [1] is at most 5.00; in data set [2] (setting [15]) it was at most 5.00; in [3] it was at most 5.00; in data set [4] it was at most 5.00; in data set [5] (setting [16]), at most 5.00; in data set [6] (Ki, [3H] radioligand Rauwolscine, Human, Cloned) it was at most 5.00. Besides, the pKi in data set [7] is at most 5.00; in data set [8] (setting [17]) it was 5.02; in data set [8] (Ki, binding curve File S1, Alpha1A Receptor, [125I]HEAT (0.03 nM), for 14674 the curve marked old) it was 5.02; in data set [9], at most 5.00; in data set [11], at most 5.00; in [12], at most 5.00. In addition, the pKi in [13] and in data set [14] was at most 5.00 throughout. For the same molecule, the “modulation of the displacement of [125I]HEAT by noradrenaline” value in data set [8] (10 µM GNTI) is “did not detectably modulate”. In data set [10], the apical-to-basolateral permeability (Papp A→B) at 120 min stood at 88 ×10⁻⁶ cm/s. Further, the Papp B→A at 120 min in [10] was 270 ×10⁻⁶ cm/s. Besides, in data set [10], the efflux ratio at 120 min worked out at 3.1.
As to `CC(C)[C@@H](CN1CC[C@@](C)(c2cccc(O)c2)[C@@H](C)C1)NC(=O)[C@H]1Cc2ccc(O)cc2CN1` [JDTic], the pKi was at most 5.00 in data set [1] ([3H] radioligand LSD, Human, Cloned, read-out: Ki); at most 5.00 in data set [2] (setting [15]); at most 5.00 in data set [3]; at most 5.00 in data set [4] ([3H] radioligand N-Methylspiperone, Human, Cloned, read-out: Ki); at most 5.00 in data set [5] (setting [16]); at most 5.00 in data set [6]. In addition, the pKi in data set [7] ([3H] radioligand DTG, Rat, PC12, read-out: Ki) is at most 5.00; in data set [8] (read-out: Ki), at most 5.00; in data set [9] ([3H] radioligand Pentazocine(+), Rat, Brain, read-out: Ki) it was 5.73; in data set [9] (binding curve File S1, Sigma-1 Receptor, [3H]Pentazocine (3.0 nM), Sigma Binding Buffer, read-out: Ki) it was 5.73; in data set [9] (σ1, radioligand displacement (Table 1), read-out: K i), 5.72; in [11] ([3H] radioligand Histamine, Human, Cloned, read-out: Ki) it was at most 5.00. Besides, the pKi in [12] ([3H] radioligand GR125743, Human, Cloned, read-out: Ki) is at most 5.00; in data set [13] ([3H] radioligand QNB, Human, Cloned, read-out: Ki), at most 5.00; in data set [14] ([3H] radioligand 5HT, Human, Cloned, read-out: Ki), at most 5.00. For the same molecule, in [10], the Papp A→B at 120 min was 60 ×10⁻⁶ cm/s. This molecule also displayed a Papp B→A at 120 min in data set [10] of 310 ×10⁻⁶ cm/s.
For the molecule `Oc1ccc2c3c1O[C@H]1c4[nH]c5c(c4C[C@@]4(O)[C@@H](C2)N(CC2CC2)CC[C@]314)C[C@@]1(O)[C@H]2Cc3ccc(O)c4c3[C@@]1(CCN2CC1CC1)[C@H]5O4` [nor-BNI, Nor-binaltorphimine], the pKi in data set [1] was at most 5.00; in data set [2] (setting [15]), 5.84; in [2] (binding curve File S1, Alpha2B Receptor, [125I]Clonidine (0.12 nM), Alpha2 Binding Buffer), 5.84; in data set [2] (α2B, radioligand displacement (Table 1)) it was 5.82; in data set [3], at most 5.00; in data set [4] it was at most 5.00. The pKi in [5] (5-HT1a, radioligand displacement (Table 1)) is 5.96; in [5] (setting [16]), 5.95; in data set [5] (binding curve File S1, 5-HT1A Receptor, [3H]8-OH-DPAT (0.5 nM), Standard Binding Buffer) it was 5.96; in [6] (K i, α2A, radioligand displacement (Table 1)) it was 5.31; in data set [7], at most 5.00; in [8] (setting [17]), at most 5.00. In addition, the pKi in data set [9], in [11], in [12], in data set [13] and in [14] was at most 5.00 throughout. The molecule further gave a Papp A→B at 120 min in data set [10] of 51 ×10⁻⁶ cm/s. The same molecule gave a Papp B→A at 120 min in data set [10] of 310 ×10⁻⁶ cm/s.
